Test results as given in patent US20170000133A1, “BENZOXABOROLE FUNGICIDES” (SYNGENTA PARTICIPATIONS AG, priority 2013, published 2017).

How the values were obtained:
[1] = system: Pythium ultimum; test: Pythium ultimum / liquid culture (seedling damping off); type: cell-based; conditions: Globisporangium ultimum; 200 ppm; potato dextrose broth, 24° C., 2-3 days after application; read-out: disease control (inhibition of growth determined photometrically)
[2] = system: Gaeumannomyces graminis; test: Gaeumannomyces graminis / liquid culture (take-all of cereals); type: cell-based; conditions: PDB potato dextrose broth, 24° C., 4-5 days after application, read-out: disease control (inhibition of growth determined photometrically)
How it was run: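 Cryo-stored mycelial fragments in potato dextrose broth exposed to compound in DMSO at 200 ppm. Incubated at 24 °C; growth inhibition read photometrically 4–5 days after application.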

[3] = system: Plasmopara viticola; test: whole plant or invertebrate; type: in vivo; conditions: foliar, read-out: disease control
[4] = system: Fusarium culmorum; test: microbe, parasite or virus in culture; type: cell-based; conditions: read-out: disease control (inhibition of growth determined visually)
[5] = system: Puccinia recondita f. sp. tritici; test: Puccinia recondita f. sp. tritici / wheat / leaf disc preventative (brown rust); type: in vivo; conditions: foliar, wheat leaf segments cv Kanzler, inoculated 1 day after application, assessed 7-9 days after application, read-out: disease control
Text: 3. Puccinia recondita f. sp. tritici/Wheat/Leaf Disc Preventative (Brown Rust): Wheat leaf segments cultivated variety (cv) Kanzler were placed on agar in 24-well plates and sprayed with formulated test compound diluted in water at an application rate of 200 ppm. The leaf disks were inoculated with a spore suspension of the fungus 1 day after application.

[6] = system: Mycosphaerella graminicola (Septoria tritici); test: Mycosphaerella graminicola (Septoria tritici) / liquid culture (Septoria blotch); type: cell-based; conditions: Zymoseptoria tritici, PDB potato dextrose broth, 24° C., 4-5 days after application, read-out: disease control (inhibition of growth determined photometrically)
How it was run: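 Conidia from cryostorage were suspended in potato dextrose broth and added to test compound in DMSO at 200 ppm in microtiter wells. Plates were incubated at 24° C and growth inhibition measured photometrically 4-5 days after application.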

[7] = system: Botryotinia fuckeliana (Botrytis cinerea); test: Botryotinia fuckeliana (Botrytis cinerea) / liquid culture (gray mould); type: cell-based; conditions: Vogels broth, 24° C., 3-4 days after application, read-out: disease control (inhibition of growth determined photometrically)
Protocol: 10. Botryotinia fuckeliana (Botrytis cinerea)/Liquid Culture (Gray Mould): Conidia of the fungus from cryogenic storage were directly mixed into nutrient broth (Vogels broth). After placing a DMSO solution of test compound into a 96-well microtiter plate at an application rate of 200 ppm, the nutrient broth containing the fungal spores was added. The test plates were incubated at 24° C. and the inhibition of growth was determined photometrically 3-4 days after application.

[8] = system: Sclerotinia sclerotiorum; test: Sclerotinia sclerotiorum / liquid culture (cottony rot); type: cell-based; conditions: PDB potato dextrose broth, 24° C., 3-4 days after application, read-out: disease control (inhibition of growth determined visually)
Protocol: 18. Sclerotinia sclerotiorum/Liquid Culture (Cottony Rot): Mycelia fragments of a newly grown liquid culture of the fungus were directly mixed into nutrient broth (PDB potato dextrose broth). After placing a (DMSO) solution of the test compounds into a microtiter plate (96-well format) the nutrient broth containing the fungal material was added. The test plates were incubated at 24° C. and the inhibition of growth was determined visually 3-4 days after application.

[9] = system: Mycosphaerella arachidis (Cercospora arachidicola); test: Mycosphaerella arachidis (Cercospora arachidicola) / liquid culture (early leaf spot); type: cell-based; conditions: PDB potato dextrose broth, 24° C., 4-5 days after application, read-out: disease control (inhibition of growth determined photometrically)
How it was run: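 Conidia from cryogenic storage mixed into potato dextrose broth and added to compound at 200 ppm in DMSO. Incubation at 24° C.; growth inhibition read photometrically 4-5 days after application.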

[10] = system: Glomerella lagenarium (Colletotrichum lagenarium); test: Glomerella lagenarium (Colletotrichum lagenarium) / liquid culture (anthracnose); type: cell-based; conditions: Colletotrichum orbiculare, PDB potato dextrose broth, 24° C., 3-4 days after application, read-out: disease control (inhibition of growth measured photometrically)
How it was run: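 Conidia of G. lagenarium from cryogenic storage were suspended in potato dextrose broth and added to test compound in DMSO at 200 ppm. Plates were incubated at 24° C, and growth inhibition was read photometrically 3-4 days after application.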

[11] = system: Thanatephorus cucumeris (Rhizoctonia solani); test: Thanatephorus cucumeris (Rhizoctonia solani) / liquid culture (foot rot, damping-off); type: cell-based; conditions: PDB potato dextrose broth, 24° C., 3-4 days after application, read-out: disease control (inhibition of growth determined photometrically)
How it was run: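 Mycelial fragments from fresh liquid culture were suspended in potato dextrose broth and added to compound in DMSO at 200 ppm. After 3-4 days at 24 °C, growth inhibition was measured photometrically.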

[12] = system: Puccinia recondita f. sp. tritici; test: Puccinia recondita f. sp. tritici / wheat / leaf disc curative (brown rust); type: in vivo; conditions: foliar, 192 h, wheat leaf segments, applied one day after inoculation, assessed 8 dpi, read-out: disease control
Protocol: 4. Puccinia recondita f. sp. tritici/Wheat/Leaf Disc Curative (Brown Rust) Wheat leaf segments are placed on agar in multiwell plates (24-well format). The leaf disks are then inoculated with a spore suspension of the fungus. One day after inoculation the test solution is applied. After appropriate incubation the activity of a compound is assessed 8 dpi (days after inoculation) as curative fungicidal activity. Dose range: 200-22 ppm.

[13] = system: Monographella nivalis (Microdochium nivale); test: Monographella nivalis (Microdochium nivale) / liquid culture (foot rot cereals); type: cell-based; conditions: PDB potato dextrose broth, 24° C., 4-5 days after application, read-out: disease control (inhibition of growth determined photometrically)
[14] = system: Magnaporthe grisea (Pyricularia oryzae); type: in vivo; conditions: 200 ppm; rice leaf segments cv. Ballila, inoculated 2 days after application, assessed 5-7 days after application
[15] = system: Phaeosphaeria nodorum (Septoria nodorum); test: Phaeosphaeria nodorum (Septoria nodorum) / wheat / leaf disc preventative (glume blotch); type: in vivo; conditions: Parastagonospora nodorum, foliar, wheat leaf segments cv Kanzler, inoculated 2 days after application, assessed 5-7 days after application, read-out: disease control
Protocol: 5. Phaeosphaeria nodorum (Septoria nodorum)/Wheat/Leaf Disc Preventative (Glume Blotch): Wheat leaf segments (cv) Kanzler were placed on agar in a 24-well plate and sprayed with formulated test compound diluted in water at an application rate of 200 ppm. The leaf disks were inoculated with a spore suspension of the fungus 2 days after application. The inoculated test leaf disks were incubated at 20° C. and 75% relative humidity under a light regime of 12/12 h (light/dark) in a climate cabinet and the activity of a compound was assessed as percent disease control compared to untreated when an appropriate level of disease damage appears in untreated check leaf disks (5-7 days after application).

[16] = system: Phytophthora infestans; test: whole plant or invertebrate; type: in vivo; conditions: in Solanum lycopersicum, foliar, read-out: disease control

COC(=O)COC(=O)c1cc2c(cc1F)COB2O [Compound 419]
≥ 80%: inhibition at 200 ppm [1] | inhibition at 200 ppm [2] | pest or weed control at 200 ppm [3] | inhibition at 200 ppm [4] | pest or weed control at 200 ppm [5] | inhibition at 200 ppm [6] | inhibition at 200 ppm [7] | inhibition at 200 ppm [8] | inhibition at 200 ppm [9] | inhibition at 200 ppm [10] | inhibition at 200 ppm [11] | pest or weed control at 200 ppm [12] | inhibition at 200 ppm [13]
112 to 114 °C: melting point

COC(=O)c1cc2c(cc1Cl)COB2O [Compound 21]
at least 80%: disease control [14]

O=C(OCC1CCC1)c1ccc2c(c1)B(O)OC2 [Compound 351]
≥ 80%: inhibition at 200 ppm [1] | pest or weed control at 200 ppm [15] | inhibition at 200 ppm [2] | pest or weed control at 200 ppm [3] | inhibition at 200 ppm [4] | inhibition at 200 ppm [6] | inhibition at 200 ppm [9] | inhibition at 200 ppm [10] | inhibition at 200 ppm [11] | pest or weed control at 200 ppm [12] | inhibition at 200 ppm [13]

C=C(C)COC(=O)c1ccc2c(c1)B(O)OC2 [Compound 339]
≥ 80%: inhibition at 200 ppm [1] | inhibition at 200 ppm [2] | pest or weed control at 200 ppm [3] | inhibition at 200 ppm [6] | inhibition at 200 ppm [9] | inhibition at 200 ppm [10] | inhibition at 200 ppm [11] | pest or weed control at 200 ppm [12] | inhibition at 200 ppm [13]

COC(=O)COC(=O)c1cc2c(cc1Cl)COB2O [Compound 230]
≥ 80%: inhibition at 200 ppm [1] | inhibition at 200 ppm [2] | pest or weed control at 200 ppm [3] | inhibition at 200 ppm [4] | inhibition at 200 ppm [6] | inhibition at 200 ppm [8] | inhibition at 200 ppm [9] | inhibition at 200 ppm [10] | inhibition at 200 ppm [11] | pest or weed control at 200 ppm [12] | inhibition at 200 ppm [13]

C#CCCOC(=O)c1cc2c(cc1F)COB2O [Compound 418]
≥ 80%: inhibition at 200 ppm [1] | inhibition at 200 ppm [2] | pest or weed control at 200 ppm [3] | inhibition at 200 ppm [6] | inhibition at 200 ppm [8] | inhibition at 200 ppm [9] | inhibition at 200 ppm [11] | pest or weed control at 200 ppm [12] | inhibition at 200 ppm [13]

O=C(OCCF)c1cc2c(cc1Cl)COB2O [Compound 233]
≥ 80%: inhibition at 200 ppm [1] | pest or weed control at 200 ppm [15] | inhibition at 200 ppm [2] | inhibition at 200 ppm [4] | inhibition at 200 ppm [6] | inhibition at 200 ppm [9] | inhibition at 200 ppm [10] | pest or weed control at 200 ppm [12] | inhibition at 200 ppm [13]

O=C(OCC#Cc1ccccc1)c1cc2c(cc1Cl)COB2O [Compound 232]
≥ 80%: inhibition at 200 ppm [1] | pest or weed control at 200 ppm [15] | inhibition at 200 ppm [2] | pest or weed control at 200 ppm [3] | inhibition at 200 ppm [4] | inhibition at 200 ppm [6] | inhibition at 200 ppm [9] | inhibition at 200 ppm [10] | inhibition at 200 ppm [11] | inhibition at 200 ppm [13]

COC(=O)c1cc2c(cc1C)COB2O [Compound 446]
≥ 80%: inhibition at 200 ppm [1] | pest or weed control at 200 ppm [15] | inhibition at 200 ppm [2] | inhibition at 200 ppm [4] | inhibition at 200 ppm [6] | inhibition at 200 ppm [8] | inhibition at 200 ppm [9] | inhibition at 200 ppm [10] | inhibition at 200 ppm [11] | inhibition at 200 ppm [13]
136 to 138 °C: melting point

C#CCCOC(=O)c1ccc2c(c1)B(O)OC2 [Compound 355]
≥ 80%: inhibition at 200 ppm [1] | inhibition at 200 ppm [2] | pest or weed control at 200 ppm [3] | inhibition at 200 ppm [6] | inhibition at 200 ppm [9] | inhibition at 200 ppm [10] | inhibition at 200 ppm [11] | pest or weed control at 200 ppm [12] | inhibition at 200 ppm [13]

CCC#CCOC(=O)c1ccc2c(c1)B(O)OC2 [Compound 318]
≥ 80%: inhibition at 200 ppm [1] | pest or weed control at 200 ppm [15] | inhibition at 200 ppm [2] | pest or weed control at 200 ppm [3] | inhibition at 200 ppm [4] | inhibition at 200 ppm [6] | inhibition at 200 ppm [7] | inhibition at 200 ppm [9] | inhibition at 200 ppm [11] | inhibition at 200 ppm [13]

CC(C)c1ccc(NC(=O)c2cc3c(cc2Cl)COB3O)cc1 [Compound 110]
≥ 80%: pest or weed control at 200 ppm [15] | inhibition at 200 ppm [6] | inhibition at 200 ppm [13]

O=C(OCC1CC1)c1cc2c(cc1Cl)COB2O [Compound 202]
≥ 80%: inhibition at 200 ppm [1] | pest or weed control at 200 ppm [15] | pest or weed control at 200 ppm [16] | inhibition at 200 ppm [2] | inhibition at 200 ppm [4] | inhibition at 200 ppm [6] | inhibition at 200 ppm [7] | inhibition at 200 ppm [8] | inhibition at 200 ppm [9] | inhibition at 200 ppm [10] | inhibition at 200 ppm [11] | inhibition at 200 ppm [13]

C#CCCCOC(=O)c1cc2c(cc1Cl)COB2O [Compound 208]
≥ 80%: inhibition at 200 ppm [1] | pest or weed control at 200 ppm [15] | pest or weed control at 200 ppm [16] | inhibition at 200 ppm [2] | pest or weed control at 200 ppm [3] | inhibition at 200 ppm [6] | inhibition at 200 ppm [10] | inhibition at 200 ppm [13]

COC(=O)COC(=O)c1ccc2c(c1)B(O)OC2 [Compound 356]
≥ 80%: inhibition at 200 ppm [1] | inhibition at 200 ppm [2] | pest or weed control at 200 ppm [3] | pest or weed control at 200 ppm [5] | inhibition at 200 ppm [9] | inhibition at 200 ppm [10] | inhibition at 200 ppm [11] | pest or weed control at 200 ppm [12] | inhibition at 200 ppm [13]

O=C(Nc1ccccc1C(=O)c1ccccc1)c1cc2c(cc1F)COB2O [Compound 161]
≥ 80%: inhibition at 200 ppm [1] | pest or weed control at 200 ppm [15] | pest or weed control at 200 ppm [3] | pest or weed control at 200 ppm [5] | inhibition at 200 ppm [6] | inhibition at 200 ppm [13]
